Test results as given in patent US20090202518A1, “Treatment of sepsis and inflammation with alpha2A Adrenergic antagonists” (The Feinstein Institute of Medical Research, priority 2005, published 2009).
“Also recorded” adds a separate entry of the source.

Experiments:
Kupffer cells (KCs) = assay: TNF-α release from cultured Kupffer cells; assay type: cell-based
Source text: The nervous system regulates the inflammatory response in real time. Our previous studies have shown that the sympathetic neurotransmitter, norepinephrine (NE), increases TNF-α release via activation of α2A-adrenoceptor (α2A-AR) on Kupffer cells (KCs). In cultured KCs, NE increases the release of TNF-α by 3.4-fold and a specific antagonist for α2A-AR, BRL-44408 maleate, reduces TNF-α secretion by 51%. However, it remains unknown whether in vivo administration of α2A-AR antagonists in sepsis is beneficial.

[1] = system: male rats with sepsis induced by cecal ligation and puncture (CLP); assay: Cecal ligation and puncture (CLP) model of sepsis in rats; assay type: in vivo, rat
Protocol: Sepsis was induced in male rats by cecal ligation and puncture (CLP). The CLP model of sepsis has been used extensively as a reliable model of the pathophysiologic and immunologic alterations in human sepsis.
BRL-44408 maleate (2.5 mg/kg BW) was administered intravenously at the time of CLP. Twenty hours after CLP, the rats were sacrificed and blood and liver samples were collected. Serum levels of TNF-α, liver enzymes (i.e., AST and ALT), lactate and creatinine were measured. Gene expression of TNF-α in the liver was analyzed. In additional groups of animals, the necrotic cecum was excised at 20 h post-CLP and the 10-day survival was recorded.

[2] = 2.5 mg/kg BW intravenously at the time of CLP, 20 h after CLP, means±SE, n = 6/group

Row | SMILES | increase of the release of TNF-α (Kupffer cells (KCs)) [fold] | reduction of TNF-α secretion (Kupffer cells (KCs)) [%] | ALT (serum level) [1, 2] [IU/L] | AST (serum level) [1, 2] [IU/L] | Creatinine (serum level) [1, 2] [mg/dL] | Lactate (serum level) [1, 2] [mg/dL] | TNF-α (serum level) [1, 2] [pg/mL] | TNF-α/G3PDH (mRNA) ([1]; liver gene expression, 2.5 mg/kg BW intravenously at the time of CLP, 20 h after CLP, means±SE, n = 6/group) | 10-day survival / mortality ([1]; necrotic cecum excised at 20 h post-CLP, FIG. 1)
1 | NC[C@H](O)c1ccc(O)c(O)c1 [NE, norepinephrine] | 3.4 | – | – | – | – | – | – | – | –
2 | CC1c2ccccc2CN1CC1=NCCN1.O=C(O)/C=C\C(=O)O (stereo not drawn) [BRL-44408 maleate] | – | 51 | 20.5 ± 4.5 | 20.9 ± 5.3 | 1.1 ± 0.2 | 20.6 ± 1.9 | 91.8 ± 8.1 | 0.5 ± 0.1 | increased survival; also recorded: reduced mortality
